Laboratory results reported in patent US12527835B2, “Brevican-binding peptides for brain tumor imaging” (The Brigham and Women's Hospital, Inc., priority 2018, dated 2026).
Where a SMILES comes first, the peptide text is derived from it. Where no end group is shown, it is not given here. [ ]: non-standard residue; d: D form. Ahx = NCCCCCC(=O)O

Legend:
[1] = target: T1, recombinant BΔg protein (deglycosylated brevican) (Homo sapiens, UniProt Q96GW7); test: Octet steady state binding affinity to recombinant BΔg
T1 construct: purchased R&D Systems 4009-BC-050
T1 sequence (Q96GW7 23-911): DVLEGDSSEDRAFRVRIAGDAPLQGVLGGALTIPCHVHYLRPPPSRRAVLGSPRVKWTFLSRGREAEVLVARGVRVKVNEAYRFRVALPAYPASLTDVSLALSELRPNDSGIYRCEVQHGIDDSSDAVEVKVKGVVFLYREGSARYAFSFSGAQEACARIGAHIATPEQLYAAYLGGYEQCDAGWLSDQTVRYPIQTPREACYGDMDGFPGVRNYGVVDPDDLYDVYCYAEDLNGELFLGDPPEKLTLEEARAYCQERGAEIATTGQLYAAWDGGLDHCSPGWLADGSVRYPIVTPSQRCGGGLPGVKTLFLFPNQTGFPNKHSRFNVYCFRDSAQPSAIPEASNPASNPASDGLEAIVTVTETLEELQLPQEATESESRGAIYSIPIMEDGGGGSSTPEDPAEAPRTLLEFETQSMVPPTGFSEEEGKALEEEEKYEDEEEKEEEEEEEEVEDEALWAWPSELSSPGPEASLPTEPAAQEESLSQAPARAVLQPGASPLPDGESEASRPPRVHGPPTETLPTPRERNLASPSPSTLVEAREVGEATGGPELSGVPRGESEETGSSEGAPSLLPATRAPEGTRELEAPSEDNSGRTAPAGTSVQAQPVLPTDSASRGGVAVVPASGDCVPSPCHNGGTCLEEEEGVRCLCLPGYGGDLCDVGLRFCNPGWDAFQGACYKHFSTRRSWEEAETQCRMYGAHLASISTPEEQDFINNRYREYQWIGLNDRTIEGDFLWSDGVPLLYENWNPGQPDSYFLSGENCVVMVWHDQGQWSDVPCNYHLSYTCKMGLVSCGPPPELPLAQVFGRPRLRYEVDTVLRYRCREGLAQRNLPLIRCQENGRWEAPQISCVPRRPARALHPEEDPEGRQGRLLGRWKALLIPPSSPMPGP
Method: A ForteBio OctetRed384 instrument was used to study the binding kinetics of each peptide to recombinant human brevican (re-suspended in PBS and 0.1 mM EDTA, pH 6.8). The brevican protein was deglycosylated prior to experimental use in water+0.05% tween, PI, sialidase, 0-glycosidase, N-glycosidase in sodium acetate [200 mM], NaCl [250 mM], Tris-HCl [200 mM], pH 7.5.) in the presence of protease inhibitor overnight at 4° C. (this entire composition will be referred to as ‘de-glycosylation buffer’). […] The final volume for all the solutions was 80 μl/well. Assays were performed at 30° C. in solid black 384-well plates (Geiger Bio-One). Prior to beginning, Ni-NTA biosensors were soaked for 10 min in working buffer. Before loading the protein onto each biosensor, a baseline was established in working buffer for 60 s. Deglycosylated brevican (50 μg/ml BΔg; His-tagged) was loaded on the surface of each biosensors for 180 s. […] Reference biosensors were also included in the plate as internal controls, where biosensors were exposed to the ‘de-glycosylation buffer’ lacking brevican protein during the loading step. A 60 s biosensor washing step was applied. Then, biosensors were exposed to the analyte (peptide) in working buffer (ranging between 0-10 μM BTP) for 300 s during the ‘association’ step. Finally, the biosensors were exposed to working buffer (without peptide) during the ‘dissociation’ step for 600 s. Binding affinity of each peptide was assessed through steady state analysis, where the response unit was plotted over peptide concentration. All data was plotted and curves were fitted using the non-linear ‘one-site specific binding’ fit, and the dissociation constant (KD) value was calculated using the GraphPad Prism software.
Binding kinetics analyses were performed using the Octet RED platform (Forte Bio) to measure the binding affinity of BTP-7, 8 and 9 to purified recombinant BΔg protein.

HEK-Bcan cells [2] = test: Flow cytometry blocking study with 50× molar excess of unlabeled peptide; type: cell-based, human; conditions: fluorescein-conjugated peptide 1 μM
Method: (§1) Cells were washed once with PBS and then, treated with 1 mL of 2.5 mM EDTA to dissociate the cells. The EDTA was removed by centrifugation, and PBS supplemented with 10% FBS was added to create a single-cell suspension. All peptide stocks were dissolved in DMSO, and stored at −20° C. in the dark. Cells were incubated with each peptide (at the desired final concentration, between 1-10 μM) for 3 hrs at 37° C. in the dark under constant rotation. After incubation, cells were washed 3× with PBS with 10% FBS (by centrifugation at 7000 rpm for 3 mins each). Then, cells were resuspended in 3.7% formaldehyde for fixation, and finally washed once with PBS. Cells were evaluated for peptide uptake (mean fluorescence intensity) by flow cytometry (10,000-20,000 events).
For blocking studies, cells were dissociated as described above and resuspended in cold PBS with 10% FBS. Cells were then incubated with a 50× molar excess of unlabeled peptide for 10 mins on ice, before adding the corresponding FITC-labeled peptide at a final concentration of 1 μM and incubated for 1.5 hrs on ice. Cells were then washed with cold PBS with 10% FBS, fixed and analyzed by flow cytometry.

BT188 glioma stem cells = test: Peptide uptake in BT188 (BΔg-high) versus BT145 (BΔg-low) glioma stem cells, fluorescence imaging; type: cell-based, human; conditions: fluorescein-labeled peptides, 5 μM
Excerpt: FIGS. 3A-I. Peptide characterization for BΔg specificity in glioma stem cells. (a) Table summary listing the properties of 7 peptides (composed of 8 D-amino acid residues, SEQ ID NOs:3-9, in order of appearance) that were isolated from the OBOC library screen. MW=molecular weight; KD=Kyte-Doolittle scale for amino acid hydropathy (positive scores indicate […]) (Kyte and Doolittle, J. Mol. Biol. 157, 105-132 (1982)). (b) Chemical structure showing the linkage between the peptide and FITC. (c) Western blot analysis showing the level of BΔg and Bcan in human embryo kidney (HEK) cells, and Bcan-overexpressing HEK cells (HEK-Bcan). […] Each group was normalized to a no-blocking (vehicle) control. Statistics were performed using multiple t-tests, and significance was measured in comparison to each vehicle control (p<0.0001). (e) Uptake of fluorescein-labeled BTP-2, 7, 8, 9, and 10 (at 5 μM conc.) in BT188 (BΔg-high) or BT145 (BΔg-low) glioma stem cells (GSCs). Western blot analysis on the top right confirms the BΔg expression level. […] Statistics were performed using the two-way ANOVA and Tukey's Multiple Comparison test. (f) Chemical structure showing the linkage between the peptide and Cy5.5 dye. (g) Western blot analysis showing the expression of BΔg in GBM-6 cells, with negligible BΔg level in astrocytes or neural progenitor cells (NPC). (h) Graph showing the cell uptake ranking of the top 3 peptide candidates, BTP-7, 8 and 9 in GBM-6 cells as determined by flow cytometry analysis with s.d. error bars (5 μM conc.; nevents=20,000 cells; nexperiment=5). Each group is normalized to the control scramble peptide (Scr-8). Statistics were performed using the one-way ANOVA and Tukey's Multiple Comparison test (significance were measured in comparison to the Scr-8 control). (i) Bar graph showing the uptake of BTP-7, 8 and 9 in GBM-6 cells and NPC with 95% confidence interval error bars (1 μM conc.; nevents=20,000 cells). Statistics were performed using the two-way ANOVA and Sidak's Multiple Comparison test.

HEK-Bcan cells [3] = test: Flow cytometry cell uptake, HEK-Bcan versus regular HEK cells; type: cell-based, human; conditions: Cy5.5-conjugated peptides, 5 μM
Method: as §1

GBM-6 cells = test: Flow cytometry cell uptake in GBM-6 cells; type: cell-based, human; conditions: Cy5.5-conjugated peptides; for uptake in GBM-6 cells at 4° C. compared to 37° C.: 5 μM, inhibition of endocytosis
Method: as §1

Compound | Kd [1] | uptake in HEK-Bcan cells in the presence of the blocking peptide (HEK-Bcan cells [2]) | size of the difference in uptake between BT188 and BT145 GSCs (ranking) (BT188 glioma stem cells) | uptake in BT188 GSCs compared with BT145 GSCs (BT188 glioma stem cells) | uptake in HEK-Bcan cells compared with regular HEK cells (HEK-Bcan cells [3]) | uptake in GBM-6 GSCs compared with astrocytes (GBM-6 cells) | uptake in GBM-6 cells at 4° C. compared to 37° C. (GBM-6 cells)
CC[C@@H](C)[C@@H](NC(=O)[C@@H](C)NC(=O)[C@@H](CCCNC(=N)N)NC(=O)[C@@H](CCC(N)=O)NC(=O)[C@@H](CCCNC(=N)N)NC(=O)[C@@H](CCCNC(=N)N)NC(=O)[C@@H](CC(=O)O)NC(=O)[C@@H](C)N)C(N)=O [BTP-9] (H-[dA][dD][dR][dR][dQ][dR][dA][dI]-NH2; N-terminus and C-terminus assumed) | 1500 nM | reduced uptake | largest and most significant difference | greater uptake |  |  | 
BTP-9-Cy5.5 ([dA][dD][dR][dR][dQ][dR][dA][dI]-{Ahx-Pra(Cy5.5)-NH2}) |  |  |  |  | significantly higher | significantly higher | significantly reduced
BTP-8-Cy5.5 ([dT][dI][dR][dK][dL][dV][dR][dH]-{Ahx-Pra(Cy5.5)-NH2}) |  |  |  |  | significantly higher | significantly higher | significantly reduced
BTP-10: BΔg-targeting peptide of 8 D-amino acid residues from OBOC screen; sequence only in FIG. 3A ([dS][dH][dW][dA][dV][dN][dR][dF]; not fully specified) |  | reduced uptake |  |  |  |  | 
